Measured values from the supplement of paper PMC8149375.
Values joined by “and” are separate entries in the source; they are usually repeats but may differ in a detail not shown here. Equal entries are not always repeated.

Experiments:
Settings in all cases: treatment: drug alone; 5 days
[1] = tested on: ACHN; assay: AUC of dose-response viability curve, drug alone (arbitrary (AUC of normalised viability)); higher = less growth inhibition
Experimental: (§1)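 Primary HTS: 8 RCC cell lines treated with 8 doses (up to 10 uM) of each library drug alone for 5 days; viability read by CellTiter-Glo and normalised to DMSO. GI50 was fitted with XLfit (4-parameter), AUC is the area under the dose-response curve, and minimum viability is the lowest fraction of DMSO viability across doses.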

[2] = tested on: 769-P; assay: as above
Experimental: as §1

[3] = tested on: 786-O; assay: as above
Experimental: as §1

[4] = tested on: UO-31; assay: as above
Experimental: as §1

[5] = tested on: TK-10; assay: as above
Experimental: as §1

[6] = tested on: CAKI-1; assay: as above
Experimental: as §1

[7] = tested on: SN12C; assay: as above
Experimental: as §1

[8] = tested on: A498; assay: as above
Experimental: as §1

[9] = tested on: ACHN; assay: GI50, drug alone; higher = less potent
Experimental: as §1

[10] = tested on: 769-P; assay: GI50, drug alone; higher = less potent
Experimental: as §1

[11] = tested on: 786-O; assay: GI50, drug alone; higher = less potent
Experimental: as §1

[12] = tested on: UO-31; assay: GI50, drug alone; higher = less potent
Experimental: as §1

[13] = tested on: TK-10; assay: GI50, drug alone; higher = less potent
Experimental: as §1

[14] = tested on: CAKI-1; assay: GI50, drug alone; higher = less potent
Experimental: as §1

[15] = tested on: SN12C; assay: GI50, drug alone; higher = less potent
Experimental: as §1

[16] = tested on: A498; assay: GI50, drug alone; higher = less potent
Experimental: as §1

[17] = tested on: ACHN; assay: minimum viability across doses, drug alone, relative to DMSO (fraction); higher = less growth inhibition
Experimental: as §1

[18] = tested on: 769-P; assay: as above
Experimental: as §1

[19] = tested on: 786-O; assay: as above
Experimental: as §1

[20] = tested on: UO-31; assay: as above
Experimental: as §1

[21] = tested on: TK-10; assay: as above
Experimental: as §1

[22] = tested on: CAKI-1; assay: as above
Experimental: as §1

[23] = tested on: SN12C; assay: as above
Experimental: as §1

[24] = tested on: A498; assay: as above
Experimental: as §1

| Structure (SMILES) | GI50, drug alone [9] | GI50, drug alone [11] | AUC of dose-response viability curve [1] | AUC of dose-response viability curve [2] | AUC of dose-response viability curve [3] | AUC of dose-response viability curve [4] | AUC of dose-response viability curve [5] | AUC of dose-response viability curve [6] | AUC of dose-response viability curve [7] | AUC of dose-response viability curve [8] | GI50, drug alone [10] | GI50, drug alone [12] [nM] | GI50, drug alone [13] | GI50, drug alone [14] | GI50, drug alone [15] | GI50, drug alone [16] | minimum viability across doses [17] | minimum viability across doses [18] | minimum viability across doses [19] | minimum viability across doses [20] | minimum viability across doses [21] | minimum viability across doses [22] | minimum viability across doses [23] | minimum viability across doses [24] |
| --- | --- | --- | --- | --- | --- | --- | --- | --- | --- | --- | --- | --- | --- | --- | --- | --- | --- | --- | --- | --- | --- | --- | --- | --- |
| COc1cc(Nc2ncc(F)c(Nc3ccc4c(n3)NC(=O)C(C)(C)O4)n2)cc(OC)c1OC [R406(free base)] | 1420 nM | 1590 nM | 2.35 | 3.13 | 2.21 | 4.5 | 2.44 | 2.61 | 2.79 | 4.42 | 9620 nM | 8510 | 4070 nM | 1260 nM | 3890 nM | > 10000 nM | 0.306 | 0.474 | 0.128 | 0.0454 | 0.396 | 0.142 | 0.359 | 1 |
| Cc1cccc(-c2nc(C(C)(C)C)[nH]c2-c2ccc3nccnc3c2)n1 | > 10000 nM | > 10000 nM | 3.38 | 3.25 | 2.63 | 5.79 | 2.9 | 3.35 | 3.02 | 3.88 | > 10000 nM | > 10000 | > 10000 nM | > 10000 nM | 5550 nM | 9450 nM | 0.87 | 0.795 | 0.589 | 0.569 | 0.676 | 0.603 | 0.21 | 0.302 |
| CO[C@@H](C(=O)N1Cc2[nH]nc(NC(=O)c3ccc(N4CCN(C)CC4)cc3)c2C1)c1ccccc1 | 1300 nM and 603 nM | 227 nM and 213 nM | 2.19 and 2.18 | 3.09 and 3.4 | 1.52 and 1.67 | 3.34 and 3.7 | 2.6 and 2.61 | 2.45 and 2.51 | 2.38 and 2.35 | 3.26 and 3.77 | 8850 nM and 8390 nM | > 10000 | 2640 nM and 1850 nM | 1110 nM and 960 nM | 1190 nM and 929 nM | 8180 nM and > 10000 nM | 0.176 and 0.142 | 0.463 and 0.473 | 0.00938 and 0.00426 | 0.7 and 0.698 | 0.174 and 0.139 | 0.139 and 0.0977 | 0.174 and 0.144 | 0.516 and 0.594 |
| C[C@@H]1CCN(C(=O)CC#N)C[C@@H]1N(C)c1ncnc2[nH]ccc12 | > 10000 nM | > 10000 nM | 3.3 | 3.63 | 3.54 | 4.6 | 3.14 | 3.66 | 3.63 | 3.8 | > 10000 nM | > 10000 | > 10000 nM | > 10000 nM | > 10000 nM | > 10000 nM | 0.893 | 0.988 | 0.804 | 0.876 | 0.806 | 0.98 | 0.935 | 0.909 |
| CCn1cc(-c2ccnc3[nH]c(-c4cccc(CN(C)C)c4)cc23)c(-c2ccc(NC(=O)N(C)C)cc2)n1 | 387 nM | 84.3 nM | 2.08 | 2.8 | 1.97 | 5.13 | 2.54 | 2.3 | 2.2 | 3.74 | 1440 nM | 6090 | 1530 nM | 490 nM | 686 nM | 3070 nM | 0.0251 | 0.165 | 0.0121 | 0.0615 | 0.0985 | 0.0471 | 0.0272 | 0.121 |
| COc1cc(Nc2ncc(F)c(Nc3ccc4c(n3)N(COP(=O)([O-])[O-])C(=O)C(C)(C)O4)n2)cc(OC)c1OC.[Na+].[Na+] | 973 nM | 1240 nM | 2.42 | 3.1 | 2.1 | 4 | 2.53 | 2.49 | 2.73 | 3.85 | 5080 nM | 9630 | 5180 nM | 1020 nM | 3320 nM | > 10000 nM | 0.0693 | 0.119 | 0.125 | 0.0974 | 0.418 | 0.035 | 0.303 | 0.898 |
| CCc1cc(Nc2nccc(-c3c(-c4ccc(OC)c(C(=O)Nc5c(F)cccc5F)c4)nc4ccccn34)n2)c(OC)cc1N1CCC(N2CCN(S(C)(=O)=O)CC2)CC1 | > 10000 nM | > 10000 nM | 3.03 | 3.26 | 3.37 | 5.43 | 3.23 | 3.12 | 3.17 | 4.54 | > 10000 nM | > 10000 | > 10000 nM | > 10000 nM | > 10000 nM | > 10000 nM | 0.804 | 0.828 | 0.785 | 1 | 0.865 | 0.635 | 0.858 | 1.04 |

Second part, led by results:

| GI50, drug alone [9] | GI50, drug alone [11] | Structure (SMILES) | AUC of dose-response viability curve [1] | AUC of dose-response viability curve [2] | AUC of dose-response viability curve [3] | AUC of dose-response viability curve [4] | AUC of dose-response viability curve [5] | AUC of dose-response viability curve [6] | AUC of dose-response viability curve [7] | AUC of dose-response viability curve [8] | GI50, drug alone [10] | GI50, drug alone [12] [nM] | GI50, drug alone [13] | GI50, drug alone [14] | GI50, drug alone [15] | GI50, drug alone [16] | minimum viability across doses [17] | minimum viability across doses [18] | minimum viability across doses [19] | minimum viability across doses [20] | minimum viability across doses [21] | minimum viability across doses [22] | minimum viability across doses [23] | minimum viability across doses [24] |
| --- | --- | --- | --- | --- | --- | --- | --- | --- | --- | --- | --- | --- | --- | --- | --- | --- | --- | --- | --- | --- | --- | --- | --- | --- |
| 209 nM | 167 nM | Cn1c(=O)c(F)c(Nc2ccc(I)cc2F)c2c(=O)n(C[C@@H](O)CO)cnc21 [TAK-733] | 1.8 | 2.33 | 2.08 | 3.49 | 1.72 | 1.57 | 2.08 | 3.42 | 933 nM | 2450 | 149 nM | 95 nM | 758 nM | > 10000 nM | 0.291 | 0.293 | 0.396 | 0.0861 | 0.242 | 0.17 | 0.26 | 0.784 |
| 13.3 nM | > 10000 nM | COCC[n+]1c2c(n(Cc3cnccn3)c1C)C(=O)c1ccccc1C2=O [YM155] | 0.648 | 0.736 | 0.165 | 0.852 | 1.14 | 0.655 | 0.567 | 0.68 | 14.5 nM | 25.6 | 27.7 nM | 12.5 nM | 11.3 nM | 12.4 nM | 0.00196 | 0.00858 | 0.00377 | 0.00519 | 0.0341 | 0.00636 | 0.00269 | 0.0106 |
| 689 nM | 372 nM | c1cncc(CN2CCC(n3ncc4c(N5CCOCC5)nc(-c5ccc6[nH]ccc6c5)nc43)CC2)c1 [WAY-600] | 2.32 | 2.73 | 1.79 | 3.04 | 2.23 | 2.23 | 2.51 | 4.54 | 2040 nM | 1150 | 744 nM | 624 nM | 1900 nM | 5840 nM | 0.0599 | 0.0444 | 0.00124 | 0.00348 | 0.0825 | 0.0276 | 0.164 | 0.0996 |
